Laboratory results as given in patent US20100093777A1 (Takeda Pharmaceutical Company Limited, priority 2007, published 2010).

How the values were obtained:
[1] = molecular target: T1, Human ACC2 (Nd, N terminal deleted) (Homo sapiens, UniProt O00763); test: Measurement of ACC2 inhibitory activity (recombinant ACC2 (Nd), malachite green absorbance); format: biochemical; details: recombinant human ACC2 (Nd) 6.4 μg/ml; 30° C.; 200 μM ATP, 200 μM Acetyl-CoA; absorbance 620 nm
T1 construct: His tag (from the pFAST-BacHTa vector); own knowledge: N-terminal 6xHis with TEV site; made in house; host or cells: SF-9 insect cells, recombinant baculovirus BAC-ACC2 (Nd)
T1 sequence (O00763 117-2458 limits assumed, stated change not applied): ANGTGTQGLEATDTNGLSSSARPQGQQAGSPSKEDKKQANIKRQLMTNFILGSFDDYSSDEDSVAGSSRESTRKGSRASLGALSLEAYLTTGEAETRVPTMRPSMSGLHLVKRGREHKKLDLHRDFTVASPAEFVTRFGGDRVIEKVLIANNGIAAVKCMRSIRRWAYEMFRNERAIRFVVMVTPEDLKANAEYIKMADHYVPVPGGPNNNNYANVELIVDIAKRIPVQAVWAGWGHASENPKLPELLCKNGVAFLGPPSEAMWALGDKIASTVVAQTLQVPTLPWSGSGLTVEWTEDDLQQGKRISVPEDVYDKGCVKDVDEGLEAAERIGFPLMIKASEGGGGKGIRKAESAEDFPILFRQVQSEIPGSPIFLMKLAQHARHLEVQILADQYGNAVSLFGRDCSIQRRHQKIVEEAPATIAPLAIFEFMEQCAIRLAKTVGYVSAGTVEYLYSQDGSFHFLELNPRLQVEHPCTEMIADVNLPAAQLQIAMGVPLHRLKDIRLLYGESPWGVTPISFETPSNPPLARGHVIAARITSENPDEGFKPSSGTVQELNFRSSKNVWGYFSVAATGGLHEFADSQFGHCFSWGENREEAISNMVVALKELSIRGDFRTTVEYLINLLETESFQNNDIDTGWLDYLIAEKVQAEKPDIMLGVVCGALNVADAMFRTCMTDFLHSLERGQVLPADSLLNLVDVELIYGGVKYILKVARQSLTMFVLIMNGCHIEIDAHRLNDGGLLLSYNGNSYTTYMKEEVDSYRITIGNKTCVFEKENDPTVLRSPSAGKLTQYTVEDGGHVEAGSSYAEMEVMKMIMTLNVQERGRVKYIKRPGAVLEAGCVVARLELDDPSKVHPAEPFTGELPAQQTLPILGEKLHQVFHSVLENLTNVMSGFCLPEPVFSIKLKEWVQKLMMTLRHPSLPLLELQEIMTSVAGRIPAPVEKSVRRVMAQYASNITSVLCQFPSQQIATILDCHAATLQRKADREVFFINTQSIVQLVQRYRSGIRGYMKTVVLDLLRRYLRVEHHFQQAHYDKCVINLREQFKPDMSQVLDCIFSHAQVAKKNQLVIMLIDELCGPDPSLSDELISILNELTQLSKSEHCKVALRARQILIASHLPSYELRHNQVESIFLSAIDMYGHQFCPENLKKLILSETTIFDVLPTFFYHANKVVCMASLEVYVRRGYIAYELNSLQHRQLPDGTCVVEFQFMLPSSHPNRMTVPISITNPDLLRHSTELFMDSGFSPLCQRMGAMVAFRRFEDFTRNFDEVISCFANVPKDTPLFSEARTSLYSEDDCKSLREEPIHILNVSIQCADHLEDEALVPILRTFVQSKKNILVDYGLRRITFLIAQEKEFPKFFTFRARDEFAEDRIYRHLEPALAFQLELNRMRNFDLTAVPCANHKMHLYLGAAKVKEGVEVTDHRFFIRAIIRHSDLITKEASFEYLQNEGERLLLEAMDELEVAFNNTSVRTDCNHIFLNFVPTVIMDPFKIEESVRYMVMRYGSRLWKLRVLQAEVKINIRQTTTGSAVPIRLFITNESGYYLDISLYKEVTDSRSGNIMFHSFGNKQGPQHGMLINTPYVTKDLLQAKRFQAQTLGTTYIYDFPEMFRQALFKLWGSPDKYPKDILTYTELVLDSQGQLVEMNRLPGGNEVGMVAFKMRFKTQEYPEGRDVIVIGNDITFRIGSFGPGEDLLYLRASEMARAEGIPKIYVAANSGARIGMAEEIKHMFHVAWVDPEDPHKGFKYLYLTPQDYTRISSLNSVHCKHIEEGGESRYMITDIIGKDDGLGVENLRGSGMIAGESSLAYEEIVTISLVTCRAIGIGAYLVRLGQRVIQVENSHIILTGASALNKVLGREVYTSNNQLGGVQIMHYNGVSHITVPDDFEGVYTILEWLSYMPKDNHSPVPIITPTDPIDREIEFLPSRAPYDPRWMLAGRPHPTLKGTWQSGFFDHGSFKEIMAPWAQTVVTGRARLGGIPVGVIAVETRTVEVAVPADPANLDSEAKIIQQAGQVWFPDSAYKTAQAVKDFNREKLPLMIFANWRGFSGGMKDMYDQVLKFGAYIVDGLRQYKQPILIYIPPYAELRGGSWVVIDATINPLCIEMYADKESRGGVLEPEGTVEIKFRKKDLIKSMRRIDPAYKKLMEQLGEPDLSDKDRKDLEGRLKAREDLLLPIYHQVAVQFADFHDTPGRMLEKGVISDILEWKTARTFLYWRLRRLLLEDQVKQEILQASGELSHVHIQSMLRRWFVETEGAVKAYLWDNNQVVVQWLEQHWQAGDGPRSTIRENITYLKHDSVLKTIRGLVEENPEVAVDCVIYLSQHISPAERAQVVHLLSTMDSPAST
Protocol: The ACC2 inhibitory action of the compound of the present invention was evaluated by the following method.
(§1) Human ACC2 gene was cloned by PCR using a human skeletal muscle cDNA library (Clontech) as a template and Primer 1 and Primer 2 shown below. Primer 1 and Primer 2 were prepared by adding SalI, XbaI restriction enzyme recognition sequences based on the information of the base sequence (Genbank Accession U89344) of human ACC2 gene.
(§2) PCR was performed using Pyrobest DNA polymerase (TAKARA BIO INC.). The obtained PCR product was cloned to pT7 Blue vector (Novagen) and, after confirmation of the base sequence, digested with restriction enzymes SalI and XbaI. The obtained DNA fragment was inserted into pFAST-BacHTa (Invitrogen) digested with restriction enzymes SalI and XbaI to give expression plasmid ACC2/pFAST-BacHTa.
PCR was performed using the expression plasmid as a template and Primer 3 and Primer 4 shown below to prepare a plasmid to be used for expression of ACC2 free of mitochondrial targeting sequence.
as §2, with “Pyrobest-DNA” for “Pyrobest DNA”, “AflII.” for “XbaI.”, “AflII” for “XbaI”, “ACC2mito7/pFAST-BacHTa.” for “ACC2/pFAST-BacHTa.”
Using the expression plasmid and BAC-TO-BAC Baculovirus Expression System (Invitrogen), virus stock BAC-ACC2 (N terminal deleted (hereinafter Nd)) of recombinant Baculovirus was prepared.
SF-9 cells (Invitrogen) were inoculated to a medium (2 L) for insect cells (Sf-900IISFM medium (Invitrogen) containing 10% fetal bovine serum (Trace), 50 mg/L Gentamicin (Invitrogen), 0.1% Pluronic F-68 (Invitrogen)) at 0.5×10^6 cells/mL, and cultured with shaking in Wave Bioreactor (Wave) at 27° C., 20 rpm, rocking angle […], oxygen concentration 30%.
On day 4 of the culture, 3 L of the medium for insect cells was added, the rocking angle was set to 8°, and the cells were cultured. On day 5 of the culture, 100 mL of recombinant Baculovirus BAC-ACC2 (Nd) was added, 5 L of the medium for insect cells was further added, the rocking angle was set to 11°, and the cells were cultured for 3 days. The culture medium was centrifuged at 1000×g for 10 min to give virus-infected cells. The cells were washed with phosphate buffered saline (Invitrogen) and centrifuged under the same conditions. The obtained cells were cryopreserved at −80° C.
The cryopreserved cells were thawed in ice and suspended in 900 mL of 25 mM HEPES buffer (pH 7.5) containing 10% Glycerol, 0.13 M NaCl, 1 mM EDTA, 25 mM Sodium βGlycerophosphate and 1 mM Sodium Orthovanadate, and supplemented with Complete Protease Inhibitor (Nippon Boehringer Ingelheim Co., Ltd.). The obtained suspension was homogenized 3 times in a polytron homogenizer (Kinematica) at 20,000 rpm for 30 sec. The obtained cell disruption solution was clarified by centrifugation at 31000×g for 60 min, and filtered through a 0.45 μm filter. The filtrate was passed through a column packed with 60 mL of Ni-NTA Super Flow Gel (QUIAGEN) at a flow rate of about 5 mL/min. The column was washed with buffer A (50 mM HEPES (pH 7.5) containing 0.3 M NaCl), further washed with buffer A containing 20 mM Imidazole, and eluted with buffer A containing 100 mM Imidazole. The eluate was concentrated with Vivaspin 20 (Vivascience) with a molecular weight cut off of 30K. The obtained concentrate was dialyzed against 50 mM HEPES (pH 7.5) containing 10 mM MgCl2, 2[…] Dithiothreitol, 10 mM Tripotassium Citrate and 0.3 M NaCl. The inner dialysate was filtered through a 0.22 μm filter to give ACC2 (Nd). The obtained ACC2 (Nd) was cryopreserved at −80° C.
A test compound was dissolved in dimethyl sulfoxide (DMSO) and the mixture was diluted with an enzyme reaction buffer and the resulting solution (5 μl) was added to each well.

Human ACC1 = molecular target: T2, Human ACC1 (Homo sapiens, UniProt Q13085); test: Measurement of ACC1 inhibitory activity (recombinant enzyme, malachite green absorbance); format: biochemical; details: recombinant human ACC1 8 μg/ml; 30° C.; 200 μM ATP, 200 μM Acetyl-CoA; absorbance 620 nm
T2 construct: His tag (from the pFAST-BacHTc vector); own knowledge: N-terminal 6xHis with TEV site; made in house; host or cells: SF-9 insect cells, recombinant baculovirus BAC-ACC1
Protocol: The ACC1 inhibitory action of the compound of the present invention was evaluated by the following method.
as §1, with “ACC1” for “ACC2”, “liver” for “skeletal muscle”, “NotI” for “XbaI”, “sequence” for “sequences”, “U19822)” for “U89344)”
as §2, with “using a” for “using”, “INC.)” for “INC.).”, “NotI.” for “XbaI.”, “to pFAST-BacHTc” for “into pFAST-BacHTa”, “NotI” for “XbaI”, “ACC1/pFAST-BacHTc.” for “ACC2/pFAST-BacHTa.”
Using the expression plasmid and BAC-TO-BAC Baculovirus Expression System (Invitrogen), virus stock BAC-ACC1 of recombinant Baculovirus was prepared.
SF-9 cells (Invitrogen) were inoculated to a medium (1 L) for insect cells (Sf-900IISFM medium (Invitrogen) containing 10% fetal bovine serum (Trace), 50 mg/L Gentamicin (Invitrogen) and 0.1% Pluronic F-68 (Invitrogen)) at 1×10^6 cells/mL, and cultured with shaking at 27° C., 100 rpm in a 2 L Erlenmeyer flask.
After 24 hr of the culture, recombinant Baculovirus BAC-ACC1 (10 mL) was added, and the cells were further cultured for 3 days. The culture medium was centrifuged at 1000×g for 5 min to give virus-infected cells. The cells were washed with phosphate buffered saline (Invitrogen), and centrifuged under the same conditions, and the obtained cells were cryopreserved at −80° C.
The cryopreserved cells were thawed in ice and suspended in 100 mL of 25 mM HEPES buffer (pH 7.5) containing 10% Glycerol, 0.13 M NaCl, 1 mM EDTA, 25 mM Sodium β-Glycerophosphate and 1 mM Sodium Orthovanadate, and supplemented with Complete Protease Inhibitor (Nippon Boehringer Ingelheim Co., Ltd.). The obtained suspension was homogenized 3 times in a polytron homogenizer (Kinematica) at 20,000 rpm for 30 sec. The obtained cell disruption solution was clarified by centrifugation at 185700×g for 50 min, and filtered through a 0.45 μm filter. The filtrate was passed through a column packed with 12 mL of Ni-NTA Super Flow Gel (QUIAGEN) at a flow rate of about 5 mL/min. The column was washed with buffer A (50 mM HEPES (pH 7.5) containing 0.3 M NaCl), further washed with buffer A containing 20 mM Imidazole, and eluted with buffer A containing 100 mM Imidazole. The eluate was concentrated with Vivaspin 20 (Vivascience) with a molecular weight cut off of 30K. The obtained concentrate was dialyzed against Sephadex G-25 (Amersham Biosciences, 358 ml) equilibrated with 50 mM HEPES (pH 7.5) containing 10 mM MgCl2, 2 mM Dithiothreitol, 10 mM Tripotassium Citrate and 0.3 M NaCl. The inner dialysate was concentrated with Vivaspin 20 (Vivascience) with a molecular weight cut off of 30K, and the concentrate was filtered through a 0.22 μm filter to give ACC1. The obtained ACC1 was cryopreserved at −80° C.
ACC1 (0.93 mg/ml) obtained in the above-mentioned (2) was diluted with an enzyme reaction buffer (50 mM HEPES (pH 7.5), 10 mM MgCl2, 10 mM Tripotassium Citrate, 2 mM Dithiothreitol, 0.75 mg/ml Fatty acid free BSA) to concentration of 8 μg/ml, and the mixture was added to each well of 384 well assay plate (Nunc 265196) by 10 μl.
Thereafter, ACC1 inhibitory rate (%) was measured in the same manner as in the below-mentioned Experimental Example 2-(3), and IC50 value was calculated.
ACC2 (Nd) (1.1 mg/ml) obtained in the above-mentioned (2) was diluted with an enzyme reaction buffer (50 mM HEPES (pH 7.5), 10 mM MgCl2, 10 mM Tripotassium Citrate, 2 mM Dithiothreitol, 0.75 mg/ml Fatty acid free BSA) to a concentration of 6.4 μg/ml, and the mixture was added to each well of a 384 well assay plate (Nunc 265196) by 10 μl. […]

SMILES | IC50 [1] [nM] | IC50 (Human ACC1) [nM]
CNC(=O)Nc1sc2ncccc2c1C(=O)N1CCC(N2CCCC3(C2)CC(C)(C)OC3=O)CC1 (single isomer, unassigned) [Example 14, N-(3-{[4-(3,3-dimethyl-1-oxo-2-oxa-7-azaspiro[4.5]dec-7-yl)piperidin-1-yl]carbonyl}thieno[2,3-b]pyridin-2-yl)-N′-methylurea] | 1 to 10 | 10 to 100
CNC(=O)Nc1sc2nc(C)ccc2c1C(=O)N1CCC(N2CCCC3(CC(=O)N(C(C)C)C3=O)C2)CC1 (single isomer, unassigned) [Example 18, N-(3-{[4-(2-isopropyl-1,3-dioxo-2,7-diazaspiro[4.5]dec-7-yl)piperidin-1-yl]carbonyl}-6-methylthieno[2,3-b]pyridin-2-yl)-N′-methylurea] | 1 to 10 | 10 to 100
CCNC(=O)Nc1sc2nc(C)ccc2c1C(=O)N1CCC(N2CCCC3(CC(=O)N(C(C)C)C3=O)C2)CC1 (single isomer, unassigned) [Example 19, N-ethyl-N′-(3-{[4-(2-isopropyl-1,3-dioxo-2,7-diazaspiro[4.5]dec-7-yl)piperidin-1-yl]carbonyl}-6-methylthieno[2,3-b]pyridin-2-yl)urea] | – | 10 to 100
CNC(=O)Nc1sc2nc(C)ccc2c1C(=O)N1CCC(N2CCCC3(C2)CC(C)(C)OC3=O)CC1 (single isomer, unassigned) [Example 27, N-(3-{[4-(3,3-dimethyl-1-oxo-2-oxa-7-azaspiro[4.5]dec-7-yl)piperidin-1-yl]carbonyl}-6-methylthieno[2,3-b]pyridin-2-yl)-N′-methylurea] | 1 to 10 | 10 to 100
CCNC(=O)Nc1sc2nc(C)ccc2c1C(=O)N1CCC(N2CCCC3(C2)CC(C)(C)OC3=O)CC1 (single isomer, unassigned) [Example 28, N-(3-{[4-(3,3-dimethyl-1-oxo-2-oxa-7-azaspiro[4.5]dec-7-yl)piperidin-1-yl]carbonyl}-6-methylthieno[2,3-b]pyridin-2-yl)-N′-ethylurea] | 1 to 10 | 10 to 100
CCNC(=O)Nc1sc2nc(C)ccc2c1C(=O)N1CCC(N2CCCC3(CCN(C(C)C)C3=O)C2)CC1 (single isomer, unassigned) [Example 65, N-ethyl-N′-(3-{[4-(2-isopropyl-1-oxo-2,7-diazaspiro[4.5]dec-7-yl)piperidin-1-yl]carbonyl}-6-methylthieno[2,3-b]pyridin-2-yl)urea] | 1 to 10 | 10 to 100
CNC(=O)Nc1sc2ncccc2c1C(=O)N1CCC(N2CCCC3(C2)SC(=O)N(C(C)C)C3=O)CC1 (stereo not shown) [Example 11, N-(3-{[4-(3-isopropyl-2,4-dioxo-1-thia-3,7-diazaspiro[4.5]dec-7-yl)piperidin-1-yl]carbonyl}thieno[2,3-b]pyridin-2-yl)-N′-methylurea] | – | 10 to 100
CNC(=O)Nc1sc2nc(C)ccc2c1C(=O)N1CCC(N2CCCC3(C2)SC(=O)N(C(C)C)C3=O)CC1 (stereo not shown) [Example 31, N-(3-{[4-(3-isopropyl-2,4-dioxo-1-thia-3,7-diazaspiro[4.5]dec-7-yl)piperidin-1-yl]carbonyl}-6-methylthieno[2,3-b]pyridin-2-yl)-N′-methylurea] | – | 10 to 100
CCNC(=O)Nc1sc2nc(C)ccc2c1C(=O)N1CCC(N2CCCC3(C2)N=C(C)N(C(C)C)C3=O)CC1 (stereo not shown) [Example 52] | – | 10 to 100
CCNC(=O)Nc1sc2nc(C)c(C)cc2c1C(=O)N1CCC(N2CCCC3(C2)N=C(C)N(C(C)C)C3=O)CC1 (stereo not shown) [Example 56] | 1 to 10 | 10 to 100
CNC(=O)Nc1sc2nc(C)c(C)cc2c1C(=O)N1CCC(N2CCCC3(C2)CC(C)(C)OC3=O)CC1 (stereo not shown) [Example 74] | 1 to 10 | –
CCNC(=O)Nc1sc2nc(C)c(C)cc2c1C(=O)N1CCC(N2CCCC3(C2)CC(C)(C)OC3=O)CC1 (stereo not shown) [Example 75] | 1 to 10 | –
CCNC(=O)Nc1sc2nc(C(F)(F)F)ccc2c1C(=O)N1CCC(N2CCCC3(CC(=O)N(C(C)C)C3=O)C2)CC1 (stereo not shown) [Example 96, N-ethyl-N′-[3-{[4-(2-isopropyl-1,3-dioxo-2,7-diazaspiro[4.5]dec-7-yl)piperidin-1-yl]carbonyl}-6-(trifluoromethyl)thieno[2,3-b]pyridin-2-yl]urea] | – | 10 to 100
